Data taken from patent US20240209028A1, “CNP COMPOUNDS” (priority 2022, published 2024).
Converted amounts (≈) assume the structure as drawn. Where two headings read alike, the source gives them in different places. Starred links: 1 amine or outer side, 2 acyl side, 3 side chain; linkers in the order of their positions; H or OH if unused. Positions of bridges follow the written chain, without caps; N, C: chain ends. Residues, ends and D or L forms follow the SMILES beside them. *: point of attachment. C18 diacid = O=C(O)CCCCCCCCCCCCCCCCC(=O)*; γGlu = O=C(O)[C@H](CCC(=O)[*:2])N[*:1]; AEEA = NCCOCCOCC(=O)O

How the values were obtained:
[1] = Solubility of CNP compounds at pH 4.0 and pH 6.5; type: physicochemical
Protocol: In order to assess the suitability of CNP compounds for a soluble liquid formulation, the solubility of CNP compounds in pharmaceutically relevant buffers were measured. Solubility at two different pH-levels (pH 4.0 and pH 6.5) was examined as pH is expected to affect solubility.
Preparation of pH 4.0 samples: The pH 4.0 samples of the CNP compounds were prepared by mixing freeze dried peptide with a pH 4.0 5 mM sodium acetate, 250 mM glycerol buffer at room temperature to a nominal concentration of at least 4000-5000 nmol/mL. The pH of the samples was measured and adjusted to pH 4.0 and the samples were allowed to equilibrate at room temperature until next day if not fully dissolved.
Preparation of pH 6.5 samples: The pH 6.5 samples of the CNP compounds were prepared by dissolving the freeze dried peptide in water. While stirring, a part of the peptide solution was transferred to a buffer consisting of 41 mM sodium phosphate and 118 mg/mL glycerol, pH 7.5-8.0, followed by addition of diluted sodium hydroxide followed by another part of the peptide solution and further addition of diluted sodium hydroxide. This procedure was repeated until all of the peptide solution had been added where a nominal concentration of at least 4000-5000 nmol/mL had been reached and the buffer composition was 8 mM sodium phosphate, 23 mg/mL glycerol. The pH of the samples were measured and adjusted to pH 6.5 and the samples were allowed to equilibrate at room temperature until next day if not fully dissolved.
Procedure: Samples at pH 4.0 were prepared as described above and the compound concentration in the supernatant was determined using CAD (Method F, CAD02).
Samples at pH 6.5 were prepared as described above and peptide concentration in the supernatant was determined by CAD (Method F, CAD02).

[2] = target: T1, human natriuretic peptide receptor 2 (hNPR2) (Homo sapiens, UniProt P20594); assay: In vitro hNPR2 activity assay (cGMP GloSensor reporter, HEK293); type: cell-based; details: potency relative to CNP22 (0065)
T1 construct: expressed in transfected cells; host or cells: HEK293 (ATCC CRL-1573), clone 35, co-transfected with pGloSensor-42F
T1 sequence (P20594 23-1047): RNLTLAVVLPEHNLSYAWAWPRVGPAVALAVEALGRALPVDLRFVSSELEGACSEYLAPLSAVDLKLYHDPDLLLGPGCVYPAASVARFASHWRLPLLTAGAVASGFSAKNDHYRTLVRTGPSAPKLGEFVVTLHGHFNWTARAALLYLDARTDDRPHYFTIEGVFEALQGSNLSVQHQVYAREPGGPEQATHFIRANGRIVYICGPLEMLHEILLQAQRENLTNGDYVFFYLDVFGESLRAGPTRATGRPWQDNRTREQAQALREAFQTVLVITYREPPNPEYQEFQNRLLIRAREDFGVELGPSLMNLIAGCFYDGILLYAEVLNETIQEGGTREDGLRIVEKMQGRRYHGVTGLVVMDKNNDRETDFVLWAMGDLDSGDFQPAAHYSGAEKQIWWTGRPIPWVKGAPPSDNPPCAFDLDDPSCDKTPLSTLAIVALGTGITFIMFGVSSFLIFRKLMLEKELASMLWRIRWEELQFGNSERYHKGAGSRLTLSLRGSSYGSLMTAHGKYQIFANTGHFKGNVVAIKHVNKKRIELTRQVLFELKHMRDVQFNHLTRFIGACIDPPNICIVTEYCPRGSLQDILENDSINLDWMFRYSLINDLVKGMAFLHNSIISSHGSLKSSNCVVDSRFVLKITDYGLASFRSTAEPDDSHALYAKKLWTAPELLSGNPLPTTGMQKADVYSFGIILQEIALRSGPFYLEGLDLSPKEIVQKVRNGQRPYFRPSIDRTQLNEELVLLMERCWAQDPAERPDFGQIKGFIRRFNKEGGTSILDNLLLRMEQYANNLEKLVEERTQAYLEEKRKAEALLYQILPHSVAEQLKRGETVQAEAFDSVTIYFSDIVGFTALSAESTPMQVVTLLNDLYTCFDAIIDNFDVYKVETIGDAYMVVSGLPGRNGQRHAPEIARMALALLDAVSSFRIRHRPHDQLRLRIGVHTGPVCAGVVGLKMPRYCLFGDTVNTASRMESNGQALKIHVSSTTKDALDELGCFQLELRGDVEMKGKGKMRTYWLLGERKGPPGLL
In short: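 Potency is the EC50 from a four-parameter logistic fit, also expressed relative to the in-plate CNP22 control (×100), with at least two replicates. Compounds (ten concentrations, […], HSA-free diluent with 1% OVA, 0.01% Tween20) were incubated 30 min at 37 °C on HEK293 cells co-expressing hNPR2 and a GloSensor cGMP luciferase. Luminescence detected with Bright-Glo.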

[3] = 8 mM sodium phosphate, 23 mg/mL glycerol, pH 6.5, room temperature, read-out: Solubility at pH 6.5

Compound: CC[C@H](C)[C@@H]1NC(=O)[C@H](CCCNC(=N)N)NC(=O)[C@H](CC(=O)O)NC(=O)[C@H](CC(C)C)NC(=O)[C@@H]2CCCN2C(=O)[C@H](CC(C)C)NC(=O)CNC(=O)[C@H](Cc2ccccc2)NC(=O)[C@@H](NC(=O)CNC(=O)[C@H](CO)NC(=O)[C@H](CO)NC(=O)[C@@H](NC(=O)CNC(=O)[C@@H](NC(=O)[C@H](Cc2c[nH]cn2)NC(=O)[C@H](CCC(N)=O)NC(=O)[C@H](C)NC(=O)CNC(=O)[C@H](Cc2c[nH]cn2)NC(=O)[C@H](Cc2ccc(O)cc2)NC(=O)[C@H](CCCCN)NC(=O)[C@H](CCCNC(=N)N)NC(=O)[C@H](C)NC(=O)COCCOCCNC(=O)COCCOCCNC(=O)CC[C@H](NC(=O)CCCCCCCCCCCCCCCCC(=O)O)C(=O)O)[C@@H](C)O)C(C)C)CSSC[C@@H](C(=O)O)NC(=O)CNC(=O)[C@H](CC(C)C)NC(=O)CNC(=O)[C@H](CO)NC(=O)[C@H](CC(C)C)NC(=O)[C@H](CO)NC(=O)CNC1=O [compound 1351] ({C18 diacid-γGlu-AEEA-AEEA}-ARKYHGAQHTGVSSGCFGLPLDRIGSLSGLGC-OH; disulfide 16-32)
- solubility ([1]; 5 mM sodium acetate, 250 mM glycerol, pH 4.0, room temperature, read-out: Solubility at pH 4.0): 6.17 mM (≈ 24.4 mg/mL)
- hNPR2 0% HSA. [EC50% rel CNP] [2]: 55.2%

Compound: CC[C@H](C)[C@@H]1NC(=O)[C@H](CCCNC(=N)N)NC(=O)[C@H](CC(=O)O)NC(=O)[C@H](CC(C)C)NC(=O)[C@@H]2CCCN2C(=O)[C@H](CC(C)C)NC(=O)CNC(=O)[C@H](Cc2ccccc2)NC(=O)[C@@H](NC(=O)CNC(=O)[C@H](CO)NC(=O)[C@H](CO)NC(=O)[C@@H](NC(=O)CNC(=O)[C@@H](NC(=O)[C@H](CCCCN)NC(=O)[C@H](CCC(N)=O)NC(=O)[C@H](C)NC(=O)CNC(=O)[C@H](Cc2c[nH]cn2)NC(=O)[C@H](Cc2ccc(O)cc2)NC(=O)COCCOCCNC(=O)COCCOCCNC(=O)COCCOCCNC(=O)CC[C@H](NC(=O)CCCCCCCCCCCCCCCCC(=O)O)C(=O)O)[C@@H](C)O)C(C)C)CSSC[C@@H](C(=O)O)NC(=O)CNC(=O)[C@H](CC(C)C)NC(=O)CNC(=O)[C@H](CO)NC(=O)[C@H](CC(C)C)NC(=O)[C@H](CO)NC(=O)CNC1=O [compound 1352] ({C18 diacid-γGlu-AEEA-AEEA-AEEA}-YHGAQKTGVSSGCFGLPLDRIGSLSGLGC-OH; disulfide 13-29)
- solubility [1, 3]: 7.73 mM (≈ 28.9 mg/mL)
- hNPR2 0% HSA. [EC50% rel CNP] [2]: 38.6%

Compound: CC[C@H](C)[C@@H]1NC(=O)[C@H](CCCNC(=N)N)NC(=O)[C@H](CC(=O)O)NC(=O)[C@H](CC(C)C)NC(=O)[C@@H]2CCCN2C(=O)[C@H](CC(C)C)NC(=O)CNC(=O)[C@H](Cc2ccccc2)NC(=O)[C@@H](NC(=O)CNC(=O)[C@H](CO)NC(=O)[C@H](CO)NC(=O)[C@@H](NC(=O)CNC(=O)[C@@H](NC(=O)[C@H](CCCCN)NC(=O)[C@H](CCC(N)=O)NC(=O)[C@H](C)NC(=O)CNC(=O)[C@H](Cc2c[nH]cn2)NC(=O)[C@H](Cc2ccc(O)cc2)NC(=O)[C@H](CCCCN)NC(=O)[C@H](CCCNC(=N)N)NC(=O)[C@H](C)NC(=O)COCCOCCNC(=O)COCCOCCNC(=O)CC[C@H](NC(=O)CC[C@H](NC(=O)CCCCCCCCCCCCCCCCC(=O)O)C(=O)O)C(=O)O)[C@@H](C)O)C(C)C)CSSC[C@@H](C(=O)O)NC(=O)CNC(=O)[C@H](CC(C)C)NC(=O)CNC(=O)[C@H](CO)NC(=O)[C@H](CC(C)C)NC(=O)[C@H](CO)NC(=O)CNC1=O [compound 1354] ({C18 diacid-γGlu-γGlu-AEEA-AEEA}-ARKYHGAQKTGVSSGCFGLPLDRIGSLSGLGC-OH; disulfide 16-32)
- solubility [1, 3]: 0.44 mM (≈ 1.8 mg/mL)
- hNPR2 0% HSA. [EC50% rel CNP] [2]: 27.5%

Compound: CC[C@H](C)[C@@H]1NC(=O)[C@H](CCCNC(=N)N)NC(=O)[C@H](CC(=O)O)NC(=O)[C@H](CC(C)C)NC(=O)[C@@H]2CCCN2C(=O)[C@H](CC(C)C)NC(=O)CNC(=O)[C@H](Cc2ccccc2)NC(=O)[C@@H](NC(=O)CNC(=O)[C@H](CCCCN)NC(=O)[C@H](CO)NC(=O)[C@H](CC(C)C)NC(=O)CNC(=O)[C@H](CCCCN)NC(=O)[C@H](CCCCN)NC(=O)[C@H](CCC(N)=O)NC(=O)[C@H](C)NC(=O)CNC(=O)[C@H](CCC(=O)O)NC(=O)[C@H](Cc2ccc(O)cc2)NC(=O)COCCOCCNC(=O)COCCOCCNC(=O)COCCOCCNC(=O)COCCOCCNC(=O)CC[C@H](NC(=O)CCCCCCCCCCCCCCCCC(=O)O)C(=O)O)CSSC[C@@H](C(=O)O)NC(=O)CNC(=O)[C@H](CC(C)C)NC(=O)CNC(=O)[C@H](CO)NC(=O)[C@H](CC(C)C)NC(=O)[C@H](CO)NC(=O)CNC1=O [compound 1375] ({C18 diacid-γGlu-AEEA-AEEA-AEEA-AEEA}-YEGAQKKGLSKGCFGLPLDRIGSLSGLGC-OH; disulfide 13-29; C-terminus assumed)
- solubility [1, 3]: 3.13 mM (≈ 12.4 mg/mL)
- hNPR2 0% HSA. [EC50% rel CNP] [2]: 16.2%

Compound: CC[C@H](C)[C@@H]1NC(=O)[C@H](CCCNC(=N)N)NC(=O)[C@H](CC(=O)O)NC(=O)[C@H](CC(C)C)NC(=O)[C@@H]2CCCN2C(=O)[C@H](CC(C)C)NC(=O)CNC(=O)[C@H](Cc2ccccc2)NC(=O)[C@@H](NC(=O)CNC(=O)[C@H](CCCCN)NC(=O)[C@H](CO)NC(=O)CNC(=O)CNC(=O)[C@H](CCCCN)NC(=O)[C@H](CCCCN)NC(=O)[C@H](CCC(N)=O)NC(=O)[C@H](C)NC(=O)CNC(=O)[C@H](CCC(=O)O)NC(=O)[C@H](Cc2ccc(O)cc2)NC(=O)COCCOCCNC(=O)COCCOCCNC(=O)CC[C@H](NC(=O)CCCCCCCCCCCCCCCCC(=O)O)C(=O)O)CSSC[C@@H](C(=O)O)NC(=O)CNC(=O)[C@H](CC(C)C)NC(=O)CNC(=O)[C@H](CO)NC(=O)[C@H](CC(C)C)NC(=O)[C@H](CO)NC(=O)CNC1=O [compound 1377] ({C18 diacid-γGlu-AEEA-AEEA}-YEGAQKKGGSKGCFGLPLDRIGSLSGLGC-OH; disulfide 13-29)
- solubility [1, 3]: 0.443 mM (≈ 1.6 mg/mL)
- hNPR2 0% HSA. [EC50% rel CNP] [2]: 28.2%

Compound: CC[C@H](C)[C@@H]1NC(=O)[C@H](CCCNC(=N)N)NC(=O)[C@H](CC(=O)O)NC(=O)[C@H](CC(C)C)NC(=O)[C@@H]2CCCN2C(=O)[C@H](CC(C)C)NC(=O)CNC(=O)[C@H](Cc2ccccc2)NC(=O)[C@@H](NC(=O)CNC(=O)[C@H](CO)NC(=O)[C@H](CO)NC(=O)[C@H](CC(C)C)NC(=O)CNC(=O)[C@H](CCCCN)NC(=O)[C@H](CCCCN)NC(=O)[C@H](CCC(N)=O)NC(=O)[C@H](C)NC(=O)CNC(=O)[C@H](CCC(=O)O)NC(=O)[C@H](Cc2ccc(O)cc2)NC(=O)CNC(=O)CNC(=O)CNC(=O)COCCOCCNC(=O)COCCOCCNC(=O)CC[C@H](NC(=O)CCCCCCCCCCCCCCCCC(=O)O)C(=O)O)CSSC[C@@H](C(=O)O)NC(=O)CNC(=O)[C@H](CC(C)C)NC(=O)CNC(=O)[C@H](CO)NC(=O)[C@H](CC(C)C)NC(=O)[C@H](CO)NC(=O)CNC1=O [compound 1378] ({C18 diacid-γGlu-AEEA-AEEA}-GGGYEGAQKKGLSSGCFGLPLDRIGSLSGLGC-OH; disulfide 16-32)
- solubility [1, 3]: 8.92 mM (≈ 33.9 mg/mL)
- hNPR2 0% HSA. [EC50% rel CNP] [2]: 28.6%
